Data published in patent publication US10570168B2, “2′ and/or 5′ amino-acid ester phosphoramidate 3′-deoxy adenosine derivatives as anti- cancer compounds” (NuCana plc, priority 2014, dated 2020).
pIC50: −log10 of the molar value.

Key:
Type in all cases: cell-based
[1] = tested on: MCF-7; assay: CellTiterGlo viability assay, initial screening; settings: Homo sapiens, MCF7, 72 h, read-out: IC50 (relative IC50)
Procedure: (§1) In vitro viability assays were performed to assess the effects of compounds on cell viability in 7 selected cell lines over 72 hr using the CellTiterGlo (CTG, Promega-G7573) assay. The tests were performed in duplicates with treatment of compounds at 9 points, 3.16 folds titration in 96 well plates over ˜72 hr. The compound starting concentrations were […]. Cell viability assay using CellTiterGlo in 96-well plate were performed. The compound treatment was 72 hrs, under standard growth conditions, and in duplicate. Compounds were dissolved to 40 mM with thawed […]. Compounds were serially diluted at 3.16 fold in thawed DMSO, and warmed to 37° C. before being dissolved in media (2 μl+200 μl). After compounds were dissolved in media (media was also warmed to 37° C.). Media containing compounds were warmed to 37° C. in incubator and then compounds in media were added to cell plates (50 μl+50 μl), in duplicates. The compounds final concentrations were from […] to 19.9 nM. All compound solubilities were checked and recorded again, then the plates were transferred to CO2 tissue culture incubator immediately and incubated for 3 days. DMSO final concentration is 0.5%.

[2] = tested on: HL-60; assay: CellTiterGlo viability assay, initial screening; settings: Homo sapiens, HL-60, 72 h, read-out: IC50 (relative IC50)
Procedure: as §1

[3] = tested on: KG-1; assay: CellTiterGlo viability assay, initial screening; settings: Homo sapiens, KG-1, 72 h, read-out: IC50 (relative IC50)
Procedure: as §1

[4] = tested on: K562; assay: CellTiterGlo viability assay, initial screening; settings: Homo sapiens, K562, 72 h, read-out: IC50 (relative IC50)
Procedure: as §1

[5] = tested on: HepG2; assay: CellTiterGlo viability assay, initial screening; settings: Homo sapiens, HepG2, 72 h, read-out: IC50 (relative IC50)
Procedure: as §1

[6] = tested on: MOLT-4; assay: CellTiterGlo viability assay, initial screening; settings: Homo sapiens, MOLT-4, 72 h, read-out: IC50 (relative IC50)
Procedure: as §1

[7] = tested on: HT29; assay: Solid tumour and haematological malignancy assay (CellTiterGlo); settings: Homo sapiens, HT-29, 72 h, read-out: IC50 (absolute IC50)
Procedure, shortened: (§2)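 Cells were exposed to compound for 72 hr under standard growth conditions, in duplicate, with 0.5% final DMSO. Viability was then read by CellTiterGlo luminescence.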

[8] = tested on: MiaPaCa-2; assay: as above; settings: Homo sapiens, MIA PaCa-2, 72 h, read-out: IC50 (absolute IC50)
Procedure, shortened: as §2

[9] = tested on: HEL92.1.7; assay: as above; settings: Homo sapiens, HEL 92.1.7, 72 h, read-out: IC50 (absolute IC50)
Procedure, shortened: as §2

[10] = tested on: HL-60; assay: as above; settings: Homo sapiens, HL-60, 72 h, read-out: IC50 (absolute IC50)
Procedure, shortened: as §2

[11] = tested on: KG-1; assay: as above; settings: Homo sapiens, KG-1, 72 h; for pIC50: read-out: IC50 (absolute IC50)
Procedure, shortened: as §2

[12] = tested on: K562; assay: as above; settings: Homo sapiens, K562, 72 h; for pIC50: read-out: IC50 (absolute IC50)
Procedure, shortened: as §2

[13] = tested on: HepG2; assay: as above; settings: Homo sapiens, HepG2, 72 h, read-out: IC50 (absolute IC50)
Procedure, shortened: as §2

[14] = tested on: MCF7; assay: as above; settings: Homo sapiens, MCF7, 72 h, read-out: IC50 (absolute IC50)
Procedure, shortened: as §2

[15] = tested on: CCRFCEM; assay: as above; settings: Homo sapiens, CCRF-CEM, 72 h; for pIC50: read-out: IC50 (absolute IC50); for Emax: read-out: MI %
Procedure, shortened: as §2

[16] = tested on: Z138; assay: as above; settings: Homo sapiens, Z-138, 72 h; for pIC50: read-out: IC50 (absolute IC50)
Procedure, shortened: (§3)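 Cells were treated in duplicate with a 9-point, 3.16-fold dilution series for about 72 h under standard growth conditions. Final concentrations ran from […] to 19.9 nM, with 0.5% DMSO. Viability was read by CellTiter-Glo luminescence.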

[17] = tested on: Jurkat; assay: as above; settings: Homo sapiens, 72 h, read-out: IC50 (absolute IC50)
Procedure, shortened: as §3

[18] = tested on: NCI-H929; assay: as above; settings: Homo sapiens, NCI-H929, 72 h; for pIC50: read-out: IC50 (absolute IC50)
Procedure, shortened: as §3

[19] = tested on: BxPC-3; assay: as above; settings: Homo sapiens, BXPC-3, 72 h, read-out: IC50 (absolute IC50)
Procedure, shortened: as §3

[20] = tested on: MOLT-4; assay: as above; settings: Homo sapiens, MOLT-4, 72 h, read-out: IC50 (absolute IC50)
Procedure, shortened: as §3

SMILES	pIC50 [1]	pIC50 [2]	pIC50 [3]	pIC50 [4]	pIC50 [5]	pIC50 [6]	pIC50 [7]	pIC50 [8]	pIC50 [9]	pIC50 [10]	pIC50 [11]	pIC50 [12]	pIC50 [13]	pIC50 [14]	pIC50 [15]	Emax [15] [%]	pIC50 [16]	pIC50 [17]	pIC50 [18]	pIC50 [19]	also measured
C[C@H](NP(=O)(OC[C@@H]1C[C@@H](O)[C@H](n2cnc3c(N)ncnc32)O1)Oc1cccc2ccccc12)C(=O)OCc1ccccc1 (stereo partly drawn) [B, (2S)-benzyl 2-(((((2S,4R,5R)-5-(6-amino-9H-purin-9-yl)-4-hydroxytetrahydrofuran-2-yl)methoxy)(naphthalen-1-yloxy)phosphoryl)amino)propanoate]	5.30 to 7.00	4.82 to 5.30	4.82 to 5.30	5.30 to 7.00	4.82 to 5.30	5.30 to 7.00	4.82 to 5.30	5.30 to 7.00	5.30 to 7.00	5.30 to 7.00	4.82 to 5.30	5.30 to 7.00	4.82 to 5.30	5.30 to 7.00	5.30 to 7.00	100	4.82 to 5.30	5.30 to 7.00	5.30 to 7.00	4.82 to 5.30	Emax ([16]; read-out: MI %): 100%; Emax ([18]; read-out: MI %): 99%; pIC50 [20]: 5.30 to 7.00
COC(=O)C(C)(C)NP(=O)(OC[C@@H]1C[C@@H](O)[C@H](n2cnc3c(N)ncnc32)O1)Oc1cccc2ccccc12 (stereo partly drawn) [E, Methyl 2-(((((2S,4R,5R)-5-(6-amino-9H-purin-9-yl)-4-hydroxytetrahydrofuran-2-yl)-methoxy)(naphthalen-1-yloxy)phosphoryl)amino)-2-methylpropanoate]	4.00 to 4.82	4.00 to 4.82	4.00 to 4.82	< 4.00	4.00 to 4.82	4.82 to 5.30	4.00 to 4.82	4.00 to 4.82	4.00 to 4.82	4.82 to 5.30	4.00 to 4.82	4.82 to 5.30	4.00 to 4.82	4.82 to 5.30	5.30 to 7.00	100	4.00 to 4.82	4.82 to 5.30	4.00 to 4.82	4.00 to 4.82	Emax ([11]; read-out: MI %): 100%; Emax ([12]; read-out: MI %): 90%; pIC50 [20]: 5.30 to 7.00
